The source of these data is ChEMBL document CHEMBL6087424, “Opportunities and Challenges of Arginase Inhibitors in Cancer: A Medicinal Chemistry Perspective” (J Med Chem, 2024).

Experiment [1] addresses T1, Arginase-1 (Homo sapiens, UniProt P05089).
T1 sequence (P05089 whole entry): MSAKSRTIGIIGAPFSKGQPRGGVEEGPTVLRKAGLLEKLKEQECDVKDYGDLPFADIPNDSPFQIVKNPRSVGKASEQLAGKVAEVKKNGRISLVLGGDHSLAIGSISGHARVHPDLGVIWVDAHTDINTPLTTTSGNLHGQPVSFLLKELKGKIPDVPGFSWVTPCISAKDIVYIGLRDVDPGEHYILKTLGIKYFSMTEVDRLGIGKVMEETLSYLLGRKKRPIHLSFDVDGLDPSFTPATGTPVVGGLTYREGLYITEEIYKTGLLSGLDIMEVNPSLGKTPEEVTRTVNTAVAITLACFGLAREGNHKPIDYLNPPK
Description: Binding affinity to human recombinant ARG1 assessed as inhibition constant.

For experiment [2], the target named is T1, Arginase-1. The experiment is described as follows: Inhibition of ARG1 (unknown origin).
Experiment [3] has as its target T1, Arginase-1. The experiment is described as follows: Inhibition of N-terminal hexa-histidine full-length human ARG1 extracted from Escherichia coli BL21 (DE3) Rosetta competent cells.
Experiment [4] addresses T2, Arginase-2, mitochondrial (Homo sapiens, UniProt P78540).
T2 sequence (P78540 whole entry): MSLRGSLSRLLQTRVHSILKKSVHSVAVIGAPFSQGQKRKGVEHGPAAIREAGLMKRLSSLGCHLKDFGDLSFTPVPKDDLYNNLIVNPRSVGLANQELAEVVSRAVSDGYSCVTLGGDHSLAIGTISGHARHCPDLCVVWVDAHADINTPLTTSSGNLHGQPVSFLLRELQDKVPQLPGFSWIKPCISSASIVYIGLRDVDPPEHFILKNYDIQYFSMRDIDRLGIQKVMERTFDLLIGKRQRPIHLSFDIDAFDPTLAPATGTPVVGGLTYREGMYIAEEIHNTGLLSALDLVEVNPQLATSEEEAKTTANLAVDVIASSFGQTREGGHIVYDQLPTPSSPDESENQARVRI
The experiment is described as follows: Inhibition of human recombinant ARG2.

In experiment [5] the target is T2, Arginase-2, mitochondrial. Description: Inhibition of human recombinant ARG2 extracted from Escherichia coli.
Experiment [6] addresses T2, Arginase-2, mitochondrial. The experiment is described as follows: Inhibition of ARG2 (unknown origin).

One may read the Ki as the dissociation constant of the complex between target and ligand, obtained from inhibition or displacement. In general, IC50 refers to the concentration that inhibits the measured activity by half.

As for `N[C@@H](CCCCC=O)C(=O)O`, in experiment [1], the Ki worked out at 60000 nM.
Compound `CN[C@@H]1C[C@@H]2C[C@@](N)(C(=O)O)[C@@H](CCCB(O)O)[C@@H]2[C@H]1F` displayed a half-inhibitory concentration (IC50) in experiment [2] of 6.9 nM.
On to `CC(C)(C)[C@H](N)C(=O)N[C@H]1CN[C@H](C(=O)O)[C@@H]1CCCB(O)O`, for which the IC50 in experiment [3] is < 1 nM.
As for `N[C@@H](CC/C=C/B(O)O)C(=O)O`, the IC50 in experiment [4] is 15000 nM.
For the compound `CN(C)C[C@@H]1CC[C@@H](CCB(O)O)C[C@]1(N)C(=O)O`, the IC50 in experiment [5] was found to be 39 nM.
In the case of `O=C(O)[C@@]1(CCCCB(O)O)CCCN1`, the results for the IC50 in experiment [2] and in experiment [6] were 14.7 nM and 23 nM, respectively.
In the case of `N[C@@](CCCCB(O)O)(C(=O)O)C1CC(NCCCc2ccccc2)C1` (stereo partly drawn), half-maximal inhibition in experiment [6] (IC50) required 26 nM.
